Structures are written as SMILES.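 Step 1: Grow cells in 96-well plates. Step 2: Expose to compound for 48 hours at 5 concentrations. Step 3: Interpolate endpoints linearly; if unreached, use highest concentration. The concentration for 50% growth inhibition is given as GI50. TGI is the concentration that stops growth completely.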

From PubChem BioAssay (NCI) come the findings set out here.

Among the test systems are XF 498 CNS; LXFL 529 NSCLC; HOP-18 NSCLC; RXF-631 renal; M19-MEL melanoma; DLD-1 colon; SNB-78 CNS.
Common to all, as to assay: NCI-60 cell line screen, 48 h

For the compound `CC(=O)c1c2c(cc3c1CC1(C3)Cc3cc4c(c(C(C)=O)c3C1)CCC4)CCC2`, the TGI in the assay with XF 498 CNS, in the assay on LXFL 529 NSCLC, with HOP-18 NSCLC, in the assay on RXF-631 renal, with M19-MEL melanoma and in the assay with DLD-1 colon was over 100 µM throughout. The compound further came in with a TGI in the assay with SNB-78 CNS of over 100 µM.
Regarding `CN(C)CCNC(=O)c1cccc2cc3c(Cl)cccc3nc12`, the TGI in the assay with XF 498 CNS was 1.64 µM; in the assay on HOP-18 NSCLC it was over 27.6 µM; in the assay with RXF-631 renal it was over 100 µM; in the assay with M19-MEL melanoma, 3.18 µM; in the assay on DLD-1 colon it was 4.46 µM; in the assay on SNB-78 CNS, 8.26 µM.
Turning to `CCOP(=O)(OCC)C1CCCOC1=O` (configuration not stated), the TGI in the assay on XF 498 CNS, with LXFL 529 NSCLC, in the assay on HOP-18 NSCLC, with RXF-631 renal, in the assay with M19-MEL melanoma and with DLD-1 colon was over 100 µM each time. The compound also yielded a TGI in the assay on SNB-78 CNS of over 100 µM.
In the case of `COCN1COCN=C1NC#N`, the TGI in the assay with XF 498 CNS, with LXFL 529 NSCLC, in the assay with HOP-18 NSCLC, with RXF-631 renal, with M19-MEL melanoma and in the assay on DLD-1 colon was over 100 µM in each case. In the assay on SNB-78 CNS, the TGI was over 100 µM.
Take `CN(C)C(=N/O)/C(=N\O)N(C)C`: the TGI in the assay on XF 498 CNS, in the assay on LXFL 529 NSCLC, with HOP-18 NSCLC, with RXF-631 renal, in the assay with M19-MEL melanoma and in the assay with DLD-1 colon was over 100 µM in each case. Besides, the TGI with SNB-78 CNS is over 100 µM.
Turning to `C[CH2][Ge]([CH2]C)([CH2]C)[O]C(=O)C(OC(C)=O)c1ccccc1` (configuration not stated), the TGI in the assay with XF 498 CNS was 31 µM; in the assay on LXFL 529 NSCLC, over 100 µM; in the assay on HOP-18 NSCLC it was over 100 µM; in the assay with RXF-631 renal, over 100 µM; in the assay with M19-MEL melanoma, over 100 µM; in the assay on DLD-1 colon it was over 100 µM. The same compound came in with a TGI in the assay on SNB-78 CNS of over 100 µM. Further, the GI50 in the assay with LXFL 529 NSCLC, in the assay with HOP-18 NSCLC, in the assay on RXF-631 renal, in the assay on M19-MEL melanoma, in the assay with DLD-1 colon and in the assay with SNB-78 CNS was over 100 µM each time.
In the case of `Cc1ccc(S(=O)(=O)SC(C)(C)C)cc1`, the TGI in the assay with XF 498 CNS was 32.1 µM; in the assay with LXFL 529 NSCLC it was over 100 µM; with HOP-18 NSCLC, over 100 µM; in the assay on RXF-631 renal, over 100 µM; in the assay on M19-MEL melanoma, over 100 µM; with DLD-1 colon it was 35.3 µM. In the assay with SNB-78 CNS, this compound had a TGI of over 100 µM.
For `ClC/C=C/COC1CCCCO1` (configuration not stated), the TGI in the assay with XF 498 CNS, with LXFL 529 NSCLC, in the assay with HOP-18 NSCLC, in the assay with RXF-631 renal, with M19-MEL melanoma and in the assay on DLD-1 colon was over 100 µM in each case. This compound returned a TGI in the assay with SNB-78 CNS of over 100 µM.
On to `CC1=C(/C=C/C(C)=C/C2CC(N(C)C)=CC(=O)O2)C(C)(C)CCC1` (configuration not stated), for which the TGI in the assay on XF 498 CNS stood at 25.1 µM; in the assay with LXFL 529 NSCLC, 24 µM; in the assay with HOP-18 NSCLC, 26.5 µM; with RXF-631 renal, 27.8 µM; in the assay with M19-MEL melanoma it was 29.3 µM; with DLD-1 colon, 32.8 µM. The same compound yielded a TGI with SNB-78 CNS of 41.9 µM.
`O=C1N2Cc3c4ccc5c3CN3C(=O)N6Cc7c(ccc(c7CN1C6(c1ccccc1)C23c1ccccc1)OCCOCCNCCOCCO4)OCCOCCNCCOCCO5` (configuration not stated): the TGI in the assay with XF 498 CNS was over 100 µM; in the assay on LXFL 529 NSCLC, 53.7 µM; in the assay with HOP-18 NSCLC it was 28.9 µM; in the assay on RXF-631 renal, over 100 µM; with M19-MEL melanoma it was over 100 µM; with DLD-1 colon it was over 100 µM. In the assay with SNB-78 CNS, the TGI was over 100 µM.
With `c1ccc2c3c([nH]c2c1)[C@H]1C2CCCCN2CN1CC3` (some centres not stated), the TGI in the assay on XF 498 CNS, in the assay with LXFL 529 NSCLC, in the assay on HOP-18 NSCLC, with RXF-631 renal, with M19-MEL melanoma and with DLD-1 colon was over 100 µM each time. Further, in the assay on SNB-78 CNS, the TGI is over 100 µM.
